In US20060045953A1 (priority 2004, published 2006):
pEC50: −log10 of the molar value. Read-outs that look alike come from different tables or passages of the source.

Target: T1, hT1R1/hT1R3 umami receptor (Homo sapiens, UniProt Q7RTX0+Q7RTX1)
T1 construct: expressed in transfected cells; host or cells: HEK293 derivative stably expressing Gα15, clone I-17, expression induced with mifepristone
T1 sequence (Q7RTX1 21-841): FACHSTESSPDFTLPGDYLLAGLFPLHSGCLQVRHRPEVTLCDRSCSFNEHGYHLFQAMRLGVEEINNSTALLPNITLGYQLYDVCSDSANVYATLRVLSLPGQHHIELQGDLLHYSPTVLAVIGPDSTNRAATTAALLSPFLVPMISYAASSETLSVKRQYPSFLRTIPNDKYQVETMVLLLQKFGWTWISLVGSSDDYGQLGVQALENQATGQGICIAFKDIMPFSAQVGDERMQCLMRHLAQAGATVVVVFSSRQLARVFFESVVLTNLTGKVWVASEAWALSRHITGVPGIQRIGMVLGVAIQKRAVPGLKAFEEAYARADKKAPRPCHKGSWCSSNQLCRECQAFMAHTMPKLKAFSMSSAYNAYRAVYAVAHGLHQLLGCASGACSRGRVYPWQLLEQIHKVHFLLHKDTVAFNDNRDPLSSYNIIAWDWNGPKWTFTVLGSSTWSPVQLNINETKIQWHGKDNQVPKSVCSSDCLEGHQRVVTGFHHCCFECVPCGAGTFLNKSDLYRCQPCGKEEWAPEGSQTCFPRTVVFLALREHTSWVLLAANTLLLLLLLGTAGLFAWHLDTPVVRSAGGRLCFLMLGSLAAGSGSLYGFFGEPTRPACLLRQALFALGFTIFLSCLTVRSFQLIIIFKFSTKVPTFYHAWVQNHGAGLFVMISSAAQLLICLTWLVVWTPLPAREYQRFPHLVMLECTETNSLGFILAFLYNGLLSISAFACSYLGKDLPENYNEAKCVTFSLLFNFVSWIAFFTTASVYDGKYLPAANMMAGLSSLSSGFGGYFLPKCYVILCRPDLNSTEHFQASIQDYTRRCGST
T1 sequence (Q7RTX0 21-852): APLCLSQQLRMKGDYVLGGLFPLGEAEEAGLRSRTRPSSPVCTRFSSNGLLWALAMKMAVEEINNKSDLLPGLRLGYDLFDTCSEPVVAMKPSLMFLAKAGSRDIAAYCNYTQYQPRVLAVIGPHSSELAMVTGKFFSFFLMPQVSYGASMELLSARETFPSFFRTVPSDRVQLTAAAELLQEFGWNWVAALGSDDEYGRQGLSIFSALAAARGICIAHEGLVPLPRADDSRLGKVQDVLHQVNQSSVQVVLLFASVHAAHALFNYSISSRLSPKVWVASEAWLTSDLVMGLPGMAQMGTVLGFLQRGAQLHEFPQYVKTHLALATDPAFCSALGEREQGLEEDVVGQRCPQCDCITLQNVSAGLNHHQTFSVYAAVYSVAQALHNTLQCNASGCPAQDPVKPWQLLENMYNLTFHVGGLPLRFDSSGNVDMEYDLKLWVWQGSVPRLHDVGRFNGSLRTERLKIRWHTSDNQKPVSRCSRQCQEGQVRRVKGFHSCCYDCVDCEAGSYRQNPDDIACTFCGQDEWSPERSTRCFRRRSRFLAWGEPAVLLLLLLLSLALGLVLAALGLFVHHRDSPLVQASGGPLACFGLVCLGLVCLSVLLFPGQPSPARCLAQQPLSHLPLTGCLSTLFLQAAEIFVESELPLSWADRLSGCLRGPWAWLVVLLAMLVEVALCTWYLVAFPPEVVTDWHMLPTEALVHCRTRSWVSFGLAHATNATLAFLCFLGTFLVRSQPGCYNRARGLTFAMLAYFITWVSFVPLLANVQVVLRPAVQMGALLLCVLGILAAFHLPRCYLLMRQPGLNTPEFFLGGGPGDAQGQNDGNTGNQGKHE
Assay: In vitro hT1R1/hT1R3 umami taste receptor activation assay (FLIPR, dose response)
Assay type: cell-based

[1] = Table A, Umami Amides, read-out: Umami EC50
[2] = Table C, Umami Ureas, read-out: Umami EC50
[3] = read-out: EC50 for activation of a hT1R1/hT1R3 umami receptor expressed in an HEK293 cell line
[4] = Table D, Umami Acrylamides, read-out: Umami EC50
[5] = opposite enantiomers compared, read-out: AFFINITY FOR T1R1/T1R3 SAVORY RECEPTOR EC50 UM

CCCC(CCC)C(=O)Nc1ccc2c(c1)OCO2 [Example A50, N-(benzo[d][1,3]dioxol-5-yl)-2-propylpentanamide]
pEC50 [1]: 5.80

CCCC(CCC)NC(=O)Nc1ccc(C)cc1OC [Example C15, 1-(heptan-4-yl)-3-(2-methoxy-4-methylphenyl)urea]
pEC50 [2]: 6.80

CCCC(CCC)NC(=O)c1ccc2[nH]cnc2c1 [Example 38, N-(heptan-4-yl)-1H-benzo[d]imidazole-5-carboxamide]
pEC50 [3]: 4.73

COc1ccc(C(=O)NC2CCc3cccc(C)c32)cc1C (stereo not shown) [Example A129, 4-methoxy-3-methyl-N-(7-methyl-2,3-dihydro-1H-inden-1-yl)benzamide]
pEC50 [1]: 5.99

CC(C)C[C@@H](NC(=O)c1ccc2c(c1)OCO2)C(=O)N(C)C [Example 13, (R)-N-(1-(dimethylamino)-4-methyl-1-oxopentan-2-yl) benzo[d][1,3]dioxole-5-carboxamide]
pEC50 [3]: 5.97

CCC(COC)NC(=O)c1cc2cc(Cl)ccc2o1 (stereo not shown) [Example A11, 5-chloro-N-(1-methoxybutan-2-yl)benzofuran-2-carboxamide]
pEC50 [1]: 5.98

CCCC(CCC)NC(=O)/C=C/c1ccccc1OC [Example 86, 3-(2-Methoxy-phenyl)-N-(1-propyl-butyl)-acrylamide]
pEC50 [3]: 6.05

CCOc1ccc(/C=C/C(=O)NC(C)CC)cc1 (stereo not shown) [Example D13, (E)-N-sec-butyl-3-(4-ethoxyphenyl)acrylamide]
pEC50 [4]: 5.88

CCCC(CCC)NC(=O)/C=C/c1ccsc1 [Example D15, (E)-N-(heptan-4-yl)-3-(thiophen-3-yl)acrylamide]
pEC50 [4]: 5.81

CCCC(NC(=O)c1ccc(C)c(C)c1)C(C)C (stereo not shown) [Example 68, 3,4-dimethyl-N-(2-methylhexan-3-yl)benzamide]
pEC50 [3]: 6.96

CCC(CC)NC(=O)Nc1ccc(OC)cc1OC [Example C13, 1-(2,4-dimethoxyphenyl)-3-(pentan-3-yl)urea]
pEC50 [2]: 5.76

CCSc1ccc(C(=O)N[C@H](CC(C)C)C(=O)OC)cc1 [Example A60, (R)-methyl 2-(4-(ethylthio)benzamido)-4-methylpentanoate]
pEC50 [1]: 6.70

COC[C@@H](CC(C)C)NC(=O)/C=C/c1ccc(OC)cc1 [Example 80, N-(1-Methoxymethyl-3-methyl-butyl)-3-(4-methoxy-phenyl)-acrylamide]
pEC50 [3]: 6.05

O=C(Nc1ccccc1F)NC1CCCc2ccccc21 (stereo not shown) [Example C11, 1-(2-fluorophenyl)-3-(1,2,3,4-tetrahydronaphthalen-1-yl)urea]
pEC50 [2]: 5.78

COC(=O)[C@@H](CC(C)C)NC(=O)/C=C/c1ccsc1 [Example D10, (R,E)-methyl 4-methyl-2-(3-(thiophen-3-yl)acrylamido)pentanoate]
pEC50 [4]: 5.96

COc1ccc2oc(C(=O)NC(C(C)C)C(C)C)cc2c1 [Example A17, N-(2,4-dimethylpentan-3-yl)-5-methoxybenzofuran-2-carboxamide]
pEC50 [1]: 5.92

CC1CCCCC1NC(=O)Nc1ccccc1Cl (stereo not shown) [Example C3, 1-(2-chlorophenyl)-3-(2-methylcyclohexyl)urea]
pEC50 [2]: 6.28

COc1cc(C)ccc1NC(=O)NC(C(C)C)C(C)C [Example C16, 1-(2,4-dimethylpentan-3-yl)-3-(2-methoxy-4-methylphenyl)urea]
pEC50 [2]: 6.68

COc1ccc(C(=O)N[C@@H]2CCc3ccccc32)cc1C [(R)-N-(2,3-dihydro-1H-inden-1-yl)-4-methoxy-3-methylbeuzamide]
pEC50 [5]: 5.67

CCCC(CCC)NC(=O)c1cccc(C)c1 [Example A83, (heptan-4-yl)-3-methylbenzamide]
pEC50 [1]: 6.28

CCCC(CCC)NC(=O)c1ccc2cc[nH]c2c1 [Example A35, N-(heptan-4-yl)-1H-indole-6-carboxamide]
pEC50 [1]: 6.09

COC(=O)[C@@H](CC(C)C)NC(=O)c1ccc(OC)c(C)c1 [Example A63, (R)-methyl 2-(4-methoxy-3-methylbenzamido)-4-methylpentanoate]
pEC50 [1]: 6.60

CCCc1ccc(C(=O)N[C@H](CC(C)C)C(=O)OC)cc1 [Example A91, (R)-methyl 4-methyl-2-(4-propylbenzamido)pentanoate]
pEC50 [1]: 6.21

COC(=O)[C@@H](CC(C)C)NC(=O)c1ccc(SC)cc1OC [Example 74, (R)-methyl 2-(2-methoxy-4-(methylthio)benzamido)-4-methylpentanoate]
pEC50 [3]: 4.80

C=Cc1ccc(C(=O)N[C@H](CC(C)C)C(=O)OC)cc1 [Example A57, (R)-methyl 4-methyl-2-(4-vinylbenzamido)pentanoate]
pEC50 [1]: 6.74

CCCC(CCC)NC(=O)c1cc2ccccc2[nH]1 [Example 35, N-(heptan-4-yl)-1H-indole-2-carboxamide]
pEC50 [3]: 5.17

COC(=O)[C@@H](CC(C)C)NC(=O)c1ccc(OC)c(F)c1 [Example 60, (R)-methyl 2-(3-fluoro-4-methoxybenzamido)-4-methylpentanoate]
pEC50 [3]: 6.52

COC(=O)[C@@H](CC(C)C)NC(=O)c1ccc(C)c(SC)c1 [Example 49, (R)-methyl 4-methyl-2-(4-methyl-3-(methylthio)benzamido)pentanoate]
pEC50 [3]: 7.00

CCCC(CCC)NC(=O)Nc1ccccc1Cl [Example C1, 1-(2-chlorophenyl)-3-(heptan-4-yl)urea]
pEC50 [2]: 6.43

COc1ccc(CNC(=O)C(=O)NCCc2ncccc2C)c(OC)c1 [Example 129, N-(2,4-Dimethoxybenzyl)-N′-(2-(3-methylpyridin-2-yl)ethyl)oxalamide]
pEC50 [3]: 5.79

COc1ccc(/C=C/C(=O)NC(C)CCc2ccccc2)cc1OC (stereo not shown) [Example D16, (E)-3-(3,4-dimethoxyphenyl)-N-(4-phenylbutan-2-yl)acrylamide]
pEC50 [4]: 5.81

CCOc1ccc(CNC(=O)C(=O)NCCc2ccc(C)cn2)c(OC)c1 [Example B2, N1-(4-ethoxy-2-methoxybenzyl)-N2-(2-(5-methylpyndm-2-yl)ethyl)oxalamide]
pEC50 (Table B, Umami Oxalamides, read-out: Umami EC50): 6.72

CCC(CC)NC(=O)c1cc2ccccc2o1 [Example A21, N-(pentan-3-yl)benzofuran-2-carboxamide]
pEC50 [1]: 5.82

CCCC(CCC)NC(=O)c1ccc2oc(C)nc2c1 [Example 40, 2-Methyl-benzooxazole-5-carboxylic acid (1-propyl-butyl)-amide]
pEC50 [3]: 6.48

COC(=O)[C@@H](CC(C)C)NC(=O)c1cccc(C)c1 [Example A99, (R)-methyl 4-methyl-2-(3-methylbenzamido)pentanoate]
pEC50 [1]: 6.05

CCOc1ccc(C(=O)N[C@H]2CCc3ccccc32)cc1C [drawing 28, (S)-N-(2,3-dihydro-1H-inden-1-yl)-4-ethoxy-3-methylbenzamide]
pEC50 [5]: 6.07

COc1ccc(CNC(=O)c2ccccc2-c2ccccc2)c(OC)c1 [Example A104, Biphenyl-2-carboxylic acid 2,4-dimethoxy-benzylamide]
pEC50 [1]: 5.86

Cc1ccc(CNC(=O)C(=O)NCCc2ccccn2)o1 [Example 152, N-((5-Methylfuran-2-yl)methyl)-N2-(2-(pyridin-2-yl)ethyl)oxalamide]
pEC50 [3]: 5.31

COCOC[C@@H](CC(C)C)NC(=O)c1ccc(C)c(C)c1 [Example 72, (R)-N-(1-(methoxymethoxy)-4-methylpentan-2-yl)-3,4-dimethylbenzamide]
pEC50 [3]: 5.97

CCCC(NC(=O)c1ccc(OC)c(C)c1)c1ccc(OC)cc1 (stereo not shown) [Example 54, 4-methoxy-N-(1-(4-methoxyphenyl)butyl)-3-methylbenzamide]
pEC50 [3]: 5.50
